# Laboratory results from the supplement of paper PMC10307832.
# How the values were obtained:
# Assay in all cases: relative viability (nuclei count vs DMSO), 5 days (fraction); higher = more cells survive
# JZL-184 + Pemetrexed = compound: C1CN(CCC1C(C2=CC3=C(C=C2)OCO3)(C4=CC5=C(C=C4)OCO5)O)C(=O)OC6=CC=C(C=C6)[N+](=O)[O-] [JZL-184] + Nc1nc2[nH]cc(CCc3ccc(C(=O)N[C@@H](CCC(=O)O)C(=O)O)cc3)c2c(=O)[nH]1 [Pemetrexed] (partner 0.2 µM)
# How it was run: (§1)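 A single step with final 0.05% Triton X-100, 1% formaldehyde and 1 ug/ml Hoechst fixed the cells and stained nuclei 5 days after treatment. Lung cancer cell lines in 1536-well plates had been treated by pin tool the day after seeding with one drug alone or a fixed anchor-drug dose plus five library-drug doses (not always all listed) in √10 steps, and nuclei were counted on 4× images. Relative viability is the ratio of nuclei in treated wells to nuclei in vehicle wells, taken as the median of duplicate plates.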
# JZL-184 + Foretinib = compound: C1CN(CCC1C(C2=CC3=C(C=C2)OCO3)(C4=CC5=C(C=C4)OCO5)O)C(=O)OC6=CC=C(C=C6)[N+](=O)[O-] [JZL-184] + COc1cc2c(Oc3ccc(NC(=O)C4(C(=O)Nc5ccc(F)cc5)CC4)cc3F)ccnc2cc1OCCCN1CCOCC1 [Foretinib] (partner 0.25 µM)
# How it was run: as §1
# JZL-184 + Navitoclax = compound: C1CN(CCC1C(C2=CC3=C(C=C2)OCO3)(C4=CC5=C(C=C4)OCO5)O)C(=O)OC6=CC=C(C=C6)[N+](=O)[O-] [JZL-184] + CC1(C)CCC(c2ccc(Cl)cc2)=C(CN2CCN(c3ccc(C(=O)NS(=O)(=O)c4ccc(N[C@H](CCN5CCOCC5)CSc5ccccc5)c(S(=O)(=O)C(F)(F)F)c4)cc3)CC2)C1 [Navitoclax] (partner 0.5 µM)
# How it was run: as §1
# JZL-184 + OSI-027 = compound: C1CN(CCC1C(C2=CC3=C(C=C2)OCO3)(C4=CC5=C(C=C4)OCO5)O)C(=O)OC6=CC=C(C=C6)[N+](=O)[O-] [JZL-184] + COc1cccc2cc(-c3nc([C@H]4CC[C@H](C(=O)O)CC4)n4ncnc(N)c34)[nH]c12 [OSI-027] (partner 0.5 µM)
# How it was run: as §1
# JZL-184 + Tozasertib = compound: C1CN(CCC1C(C2=CC3=C(C=C2)OCO3)(C4=CC5=C(C=C4)OCO5)O)C(=O)OC6=CC=C(C=C6)[N+](=O)[O-] [JZL-184] + Cc1cc(Nc2cc(N3CCN(C)CC3)nc(Sc3ccc(NC(=O)C4CC4)cc3)n2)n[nH]1 [Tozasertib] (partner 0.1 µM)
# How it was run: as §1
Cell Line,relative viability (JZL-184 + Pemetrexed; first compound 0.04 µM),relative viability (JZL-184 + Pemetrexed; first compound 0.4 µM),relative viability (JZL-184 + Pemetrexed; first compound 1.265 µM),relative viability (JZL-184 + Pemetrexed; first compound 4 µM),relative viability (JZL-184 + Foretinib; first compound 0.04 µM),relative viability (JZL-184 + Foretinib; first compound 0.4 µM),relative viability (JZL-184 + Foretinib; first compound 1.265 µM),relative viability (JZL-184 + Foretinib; first compound 4 µM),relative viability (JZL-184 + Navitoclax; first compound 0.04 µM),relative viability (JZL-184 + Navitoclax; first compound 0.4 µM),relative viability (JZL-184 + Navitoclax; first compound 1.265 µM),relative viability (JZL-184 + Navitoclax; first compound 4 µM),relative viability (JZL-184 + OSI-027; first compound 0.04 µM),relative viability (JZL-184 + OSI-027; first compound 0.4 µM),relative viability (JZL-184 + OSI-027; first compound 1.265 µM),relative viability (JZL-184 + OSI-027; first compound 4 µM),relative viability (JZL-184 + Tozasertib; first compound 0.04 µM),relative viability (JZL-184 + Tozasertib; first compound 0.4 µM),relative viability (JZL-184 + Tozasertib; first compound 1.265 µM),relative viability (JZL-184 + Tozasertib; first compound 4 µM)
LU99A,0.162,0.12,0.159,0.124,0.801,0.726,0.873,0.767,0.714,0.588,0.804,0.463,0.327,0.293,0.269,0.284,0.283,0.299,0.317,0.285
LXF-289,0.882,0.779,0.862,0.875,1.05,0.957,0.997,0.947,0.973,0.832,0.91,0.928,0.819,0.776,0.927,0.734,0.221,0.206,0.198,0.22
NCI-H23,0.772,,0.704,0.597,0.913,1.01,1.15,1.01,1.01,0.63,0.837,0.777,0.529,0.538,0.656,0.65,0.375,0.307,0.414,0.316
NCI-H322M,0.591,0.604,0.615,0.538,1.12,0.932,1.03,0.791,1.18,1.26,1.32,1.31,0.555,0.488,0.55,0.52,0.441,0.444,0.49,0.401
NCI-H441,0.277,0.248,0.239,0.285,1.36,0.907,0.897,1.06,0.802,0.59,0.796,0.608,0.604,0.541,0.591,0.601,0.769,0.567,0.533,0.513
NCI-H460,0.0624,0.0591,0.0649,0.0648,1.03,0.904,0.957,1.02,1.37,1.02,1.02,1.12,1.03,0.678,0.575,0.632,0.428,0.604,0.571,0.275
NCI-H520,0.782,0.483,0.748,0.684,0.893,0.784,0.831,0.771,1.19,1.13,1.15,1.04,0.233,0.229,0.257,0.213,0.424,0.407,0.581,0.413
NCI-H596,0.543,0.411,0.452,0.48,0.879,0.719,0.968,0.801,0.936,0.993,0.93,0.791,0.749,0.591,0.71,0.696,0.878,0.932,0.861,0.931
NCI-H647,0.201,0.161,0.209,0.19,1.19,1.2,1.27,1.24,1.24,1.12,1.12,1.07,0.625,0.698,0.75,0.51,0.388,0.425,0.46,0.252
NCI-H838,0.254,0.236,0.241,0.256,1.04,1.04,1.14,0.901,1.39,1.22,1.21,1.11,0.434,0.368,0.441,0.389,0.285,0.299,0.294,0.238
NCI-H1355,1.06,0.945,1.05,1.04,1.06,0.936,1.01,0.929,0.848,0.925,1.08,0.861,0.393,0.421,0.494,0.386,0.589,0.515,0.612,0.433
NCI-H1395,0.785,0.948,0.985,0.75,0.918,0.972,0.965,0.856,1.49,1.22,1.18,1.02,0.623,0.519,0.69,0.581,0.684,0.738,0.827,0.748
NCI-H1437,0.306,0.322,0.309,0.312,1.27,1.16,1.31,1.21,1.1,0.959,0.965,1.06,0.88,0.849,0.849,0.866,0.395,0.398,0.397,0.402
NCI-H1650,0.341,0.391,0.366,0.354,1.22,1.03,1.35,0.898,1.64,1.08,1.39,1.06,0.674,0.504,0.837,0.608,0.417,0.325,0.432,0.257
NCI-H1651,0.592,0.362,0.411,0.595,0.798,0.786,0.725,0.788,1.07,0.99,1.07,1.12,0.684,0.664,0.855,0.794,0.771,0.703,0.689,0.668
NCI-H1666,0.802,0.842,0.875,0.865,1.07,0.895,0.942,1,1.02,0.825,1.16,1.02,0.974,0.908,0.903,0.866,0.603,0.626,0.581,0.598
NCI-H1734,0.462,0.426,0.419,0.42,0.982,0.743,0.957,0.771,0.991,0.799,0.901,0.843,0.621,0.615,0.718,0.594,0.265,0.231,0.255,0.247
NCI-H1755,0.432,0.367,0.475,0.484,0.989,0.917,0.933,0.919,1.01,0.954,1.01,0.918,0.672,0.699,0.709,0.745,0.545,0.575,0.601,0.453
NCI-H1793,0.936,0.801,0.982,0.735,0.63,0.84,0.865,0.583,0.351,0.426,0.502,0.38,0.26,0.263,0.319,0.259,0.289,0.385,0.409,0.233
NCI-H1915,0.506,0.485,0.535,0.534,1.15,1.01,1.18,1.07,0.819,0.749,0.794,0.722,0.659,0.604,0.698,0.585,0.491,0.41,0.461,0.376
NCI-H1944,0.587,0.53,0.72,0.567,0.893,0.906,0.938,0.886,0.948,1.08,1.08,1.02,0.421,0.397,0.448,0.412,0.283,0.251,0.281,0.248
NCI-H1975,0.307,0.281,0.296,0.263,1.02,0.94,0.987,0.87,1.3,0.967,1.2,1.05,0.842,0.759,0.764,0.654,0.757,0.686,0.869,0.634
NCI-H1993,0.63,0.577,0.619,0.68,0.769,0.669,0.758,0.816,0.906,0.884,1.06,1.03,0.523,0.498,0.497,0.532,0.554,0.582,0.593,0.555
NCI-H2009,1.14,1.03,1.04,0.994,1.17,0.809,1.28,1.21,1.18,0.951,1.17,1.17,0.764,0.574,0.694,0.653,0.798,0.699,0.758,0.651
NCI-H2023,0.281,0.167,0.258,0.227,1.01,0.874,0.978,0.79,1.07,0.942,1.02,0.963,0.407,0.381,0.405,0.317,0.356,0.318,0.345,0.296
NCI-H2085,,0.817,0.948,0.882,0.954,0.827,1.12,0.96,1.1,1.18,1.13,1.08,0.444,0.592,0.795,0.649,,0.812,0.845,0.753
NCI-H2087,0.667,0.663,0.631,0.636,1.01,1.03,1.17,1.19,1,0.997,1.18,0.996,0.519,0.514,0.579,0.436,0.23,0.229,0.268,0.244
NCI-H2126,0.663,0.66,0.726,0.705,1.15,1.09,1.14,1.12,0.847,0.807,0.897,0.873,0.636,0.64,0.804,0.683,0.89,0.749,0.883,0.767
NCI-H2170,0.267,0.258,0.252,0.286,1.05,0.941,0.977,0.966,0.66,0.589,0.621,0.547,0.721,0.758,0.759,0.682,0.83,0.646,0.787,0.66
NCI-H2228,0.397,0.336,0.38,0.337,1.07,0.701,0.992,0.803,0.841,0.823,0.836,0.91,0.643,0.51,0.613,0.632,0.327,0.299,0.282,0.271
